From patent US9963456B2, “Pyrrolopyrimidine compound or salt thereof and compositions containing the pyrrolopyrimidine compound or salt thereof” (TAIHO PHARMACEUTICAL CO., LTD., priority 2014, dated 2018)

biological target: NAE (heterodimer of APPBP1 and UBA3) (Homo sapiens (Human), UniProt Q8TBC4); test: Nedd8 conjugation inhibitory activity (AlphaScreen assay); assay type: biochemical; conditions: purified NAE, GST-UBC12, Biotin-Nedd8, ATP
Sequence (Q8TBC4 whole entry): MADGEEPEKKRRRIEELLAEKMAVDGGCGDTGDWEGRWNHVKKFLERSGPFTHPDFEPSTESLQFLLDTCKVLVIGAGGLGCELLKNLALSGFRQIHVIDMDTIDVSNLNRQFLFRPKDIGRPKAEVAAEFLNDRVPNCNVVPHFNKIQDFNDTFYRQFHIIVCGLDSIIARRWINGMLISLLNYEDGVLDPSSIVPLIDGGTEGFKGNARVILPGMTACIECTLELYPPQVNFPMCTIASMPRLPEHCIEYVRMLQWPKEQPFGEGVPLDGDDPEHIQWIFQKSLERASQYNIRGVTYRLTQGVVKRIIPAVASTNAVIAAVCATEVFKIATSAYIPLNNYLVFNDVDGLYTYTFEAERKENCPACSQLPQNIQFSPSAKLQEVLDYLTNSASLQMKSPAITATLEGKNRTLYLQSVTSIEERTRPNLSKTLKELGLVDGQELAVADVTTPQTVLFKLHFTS
Sequence (Q13564 whole entry partner): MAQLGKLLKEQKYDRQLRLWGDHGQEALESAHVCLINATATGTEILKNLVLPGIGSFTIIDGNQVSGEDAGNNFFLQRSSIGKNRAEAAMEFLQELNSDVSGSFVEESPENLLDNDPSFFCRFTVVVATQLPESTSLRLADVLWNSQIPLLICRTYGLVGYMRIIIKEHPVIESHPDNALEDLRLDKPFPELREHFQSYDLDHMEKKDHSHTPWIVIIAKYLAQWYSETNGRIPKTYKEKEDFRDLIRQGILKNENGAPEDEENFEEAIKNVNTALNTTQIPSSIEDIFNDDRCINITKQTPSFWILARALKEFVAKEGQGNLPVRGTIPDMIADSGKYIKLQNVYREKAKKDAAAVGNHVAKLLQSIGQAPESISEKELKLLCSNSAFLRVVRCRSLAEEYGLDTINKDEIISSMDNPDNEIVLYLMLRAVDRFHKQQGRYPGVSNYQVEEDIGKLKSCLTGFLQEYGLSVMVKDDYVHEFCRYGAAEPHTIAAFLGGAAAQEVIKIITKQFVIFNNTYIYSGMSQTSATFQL

**Q.** How did the IC50 turn out when `Nc1ncnc2c1c(C#Cc1c(F)cc(OCn3nccn3)cc1F)cn2[C@@H]1O[C@H](CNS(N)(=O)=O)[C@@H](O)[C@H]1O` [Example 67, 4-Amino-5-[2-[2,6-difluoro-4-(triazol-2-ylmethoxy)phenyl]ethynyl]-7-[(2R,3R,4S,5R)-3,4-dihydroxy-5-[(sulfamoylamino)methyl]tetrahydrofuran-2-yl]pyrrolo[2,3-d]pyrimidine] was run?
**A.** 0.0085 µM

**Q.** `Nc1ncnc2c1c(C#Cc1c(F)ccnc1F)cn2[C@@H]1O[C@H](CNS(N)(=O)=O)[C@@H](O)[C@H]1O` [Example 69, 4-Amino-5-[2-(2,4-difluoro-3-pyridyl)ethynyl]-7-[(2R,3R,4S,5R)-3,4-dihydroxy-5-[(sulfamoylamino)methyl]tetrahydrofuran-2-yl]pyrrolo[2,3-d]pyrimidine] was tested. Which IC50 did it give?
**A.** 0.015 µM

**Q.** Which IC50 does the source give for `CCS(=O)(=O)c1cc(N2CCCC2)cc(F)c1C#Cc1cn([C@@H]2O[C@H](CNS(N)(=O)=O)[C@@H](O)[C@H]2O)c2ncnc(N)c12` [Example 70, 4-Amino-7-[(2R,3R,4S,5R)-3,4-dihydroxy-5-[(sulfamoylamino)methyl]tetrahydrofuran-2-yl]-5-[2-(2-ethylsulfonyl-6-fluoro-4-pyrrolidin-1-yl-phenyl)ethynyl]pyrrolo[2,3-d]pyrimidine] here?
**A.** 0.013 µM

**Q.** With `COc1cncc(F)c1C#Cc1cn([C@@H]2O[C@H](CNS(N)(=O)=O)[C@@H](O)[C@H]2O)c2ncnc(N)c12` [Example 71, 4-Amino-7-[(2R,3R,4S,5R)-3,4-dihydroxy-5-[(sulfamoylamino)methyl]tetrahydrofuran-2-yl]-5-[2-(3-fluoro-5-methoxy-4-pyridyl)ethynyl]pyrrolo[2,3-d]pyrimidine] as the compound, how does the IC50 read?
**A.** 0.014 µM

**Q.** With `CCS(=O)(=O)c1cc(N2CC[C@@H](O)C2)cc(F)c1C#Cc1cn([C@@H]2O[C@H](CNS(N)(=O)=O)[C@@H](O)[C@H]2O)c2ncnc(N)c12` [Example 72, 4-Amino-7-[(2R,3R,4S,5R)-3,4-dihydroxy-5-[(sulfamoylamino)methyl]tetrahydrofuran-2-yl]-5-[2-[2-ethylsulfonyl-6-fluoro-4-[(3R)-3-hydroxypyrrolidin-1-yl]phenyl]ethynyl]pyrrolo[2,3-d]pyrimidine] as the compound, how does the IC50 read?
**A.** 0.0044 µM

**Q.** For `Nc1ncnc2c1c(C#Cc1ncc(OCc3ccccc3)cn1)cn2[C@@H]1O[C@H](CNS(N)(=O)=O)[C@@H](O)[C@H]1O` [Example 76, 4-Amino-5-[2-(5-benzyloxypyrimidin-2-yl)ethynyl]-7-[(2R,3R,4S,5R)-3,4-dihydroxy-5-[(sulfamoylamino)methyl]tetrahydrofuran-2-yl]pyrrolo[2,3-d]pyrimidine], which IC50 is on record?
**A.** 0.0051 µM

**Q.** For `NC(=O)c1cccc(F)c1C#Cc1cn([C@@H]2O[C@H](CNS(N)(=O)=O)[C@@H](O)[C@H]2O)c2ncnc(N)c12` [Example 79, 2-[2-[4-Amino-7-[(2R,3R,4S,5R)-3,4-dihydroxy-5-[(sulfamoylamino)methyl]tetrahydrofuran-2-yl]pyrrolo[2,3-d]pyrimidin-5-yl]ethynyl]-3-fluorobenzamide], which IC50 is on record?
**A.** 0.0032 µM

**Q.** `COc1ncc(F)c(C#Cc2cn([C@@H]3O[C@H](CNS(N)(=O)=O)[C@@H](O)[C@H]3O)c3ncnc(N)c23)c1F` [Example 80, 4-Amino-5-[2-(3,5-difluoro-2-methoxy-4-pyridyl)ethynyl]-7-[(2R,3R,4S,5R)-3,4-dihydroxy-5-[(sulfamoylamino)methyl]tetrahydrofuran-2-yl]pyrrolo[2,3-d]pyrimidine] was tested. Which IC50 did it give?
**A.** 0.014 µM

**Q.** Which IC50 does the source give for `COc1cnc(OC)c(F)c1C#Cc1cn([C@@H]2O[C@H](CNS(N)(=O)=O)[C@@H](O)[C@H]2O)c2ncnc(N)c12` [Example 81, 4-Amino-7-[(2R,3R,4S,5R)-3,4-dihydroxy-5-[(sulfamoylamino)methyl]tetrahydrofuran-2-yl]-5-[2-(3-fluoro-2,5-dimethoxy-4-pyridyl)ethynyl]pyrrolo[2,3-d]pyrimidine] here?
**A.** 0.0056 µM

**Q.** `CCSc1ccccc1C#Cc1cn([C@@H]2O[C@H](CNS(N)(=O)=O)[C@@H](O)[C@H]2O)c2ncnc(N)c12` [Example 82, 4-Amino-7-[(2R,3R,4S,5R)-3,4-dihydroxy-5-[(sulfamoylamino)methyl]tetrahydrofuran-2-yl]-5-[2-(2-ethylsulfanylphenyl)ethynyl]pyrrolo[2,3-d]pyrimidine] was tested. Which IC50 did it give?
**A.** 0.01 µM

**Q.** `Nc1ncnc2c1c(C#Cc1cccc3c1S(=O)(=O)CCC3)cn2[C@@H]1O[C@H](CNS(N)(=O)=O)[C@@H](O)[C@H]1O` [Example 83, 4-Amino-7-[(2R,3R,4S,5R)-3,4-dihydroxy-5-[(sulfamoylamino)methyl]tetrahydrofuran-2-yl]-5-[2-(1,1-dioxo-3,4-dihydro-2H-thiochromen-8-yl)ethynyl]pyrrolo[2,3-d]pyrimidine] was tested. Which IC50 did it give?
**A.** 0.019 µM

**Q.** How did the IC50 turn out when `Nc1ncnc2c1c(C#Cc1c(F)cccc1S(N)(=O)=O)cn2[C@@H]1O[C@H](CNS(N)(=O)=O)[C@@H](O)[C@H]1O` [Example 84, 2-[2-[4-Amino-7-[(2R,3R,4S,5R)-3,4-dihydroxy-5-[(sulfamoylamino)methyl]tetrahydrofuran-2-yl]pyrrolo[2,3-d]pyrimidin-5-yl]ethynyl]-3-fluoro-benzenesulfonamide] was run?
**A.** 0.0097 µM

**Q.** Which IC50 does the source give for `Nc1ncnc2c1c(C#Cc1c(F)cccc1OCC1CC1)cn2[C@@H]1O[C@H](CNS(N)(=O)=O)[C@@H](O)[C@H]1O` [Example 86, 4-Amino-5-[2-[2-(cyclopropylmethoxy)-6-fluoro-phenyl]ethynyl]-7-[(2R,3R,4S,5R)-3,4-dihydroxy-5-[(sulfamoylamino)methyl]tetrahydrofuran-2-yl]pyrrolo[2,3-d]pyrimidine] here?
**A.** 0.0054 µM

**Q.** With `Nc1ncnc2c1c(C#Cc1ncccc1F)cn2[C@@H]1O[C@H](CNS(N)(=O)=O)[C@@H](O)[C@H]1O` [Example 88, 4-Amino-7-[(2R,3R,4S,5R)-3,4-dihydroxy-5-[(sulfamoylamino)methyl]tetrahydrofuran-2-yl]-5-[2-(3-fluoro-2-pyridyl)ethynyl]pyrrolo[2,3-d]pyrimidine] as the compound, how does the IC50 read?
**A.** 0.018 µM

**Q.** Which IC50 does the source give for `CSc1ccccc1C#Cc1cn([C@@H]2O[C@H](CNS(N)(=O)=O)[C@@H](O)[C@H]2O)c2ncnc(N)c12` [Example 89, 4-Amino-7-[(2R,3R,4S,5R)-3,4-dihydroxy-5-[(sulfamoylamino)methyl]tetrahydrofuran-2-yl]-5-[2-(2-methylsulfanylphenyl)ethynyl]pyrrolo[2,3-d]pyrimidine] here?
**A.** 0.011 µM

**Q.** With `Nc1ncnc2c1c(C#Cc1ccccc1S(N)(=O)=O)cn2[C@@H]1O[C@H](CNS(N)(=O)=O)[C@@H](O)[C@H]1O` [Example 90, 2-[2-[4-Amino-7-[(2R,3R,4S,5R)-3,4-dihydroxy-5-[(sulfamoylamino)methyl]tetrahydrofuran-2-yl]pyrrolo[2,3-d]pyrimidin-5-yl]ethynyl]benzenesulfonamide] as the compound, how does the IC50 read?
**A.** 0.0056 µM

**Q.** How did the IC50 turn out when `NC(=O)c1cccc(COc2ccc(C#Cc3cn([C@@H]4O[C@H](CNS(N)(=O)=O)[C@@H](O)[C@H]4O)c4ncnc(N)c34)cc2)c1` [Example 91, 3-[[4-[2-[4-Amino-7-[(2R,3R,4S,5R)-3,4-dihydroxy-5-[(sulfamoylamino)methyl]tetrahydrofuran-2-yl]pyrrolo[2,3-d]pyrimidin-5-yl]ethynyl]phenoxy]methyl]benzamide] was run?
**A.** 0.018 µM

**Q.** With `COc1cccc(OC)c1C#Cc1cn([C@@H]2C[C@H](CNS(N)(=O)=O)[C@@H](O)[C@H]2O)c2ncnc(N)c12` [Example 94, 4-Amino-7-[(1R,2S,3R,4R)-2,3-dihydroxy-4-[(sulfamoylamino)methyl]cyclopentyl]-5-[2-(2,6-dimethoxyphenyl)ethynyl]pyrrolo[2,3-d]pyrimidine] as the compound, how does the IC50 read?
**A.** 0.021 µM

**Q.** `COc1cccc(F)c1C#Cc1cn([C@@H]2C[C@H](CNS(N)(=O)=O)[C@@H](O)[C@H]2O)c2ncnc(N)c12` [Example 95, 4-Amino-7-[(1R,2S,3R,4R)-2,3-dihydroxy-4-[(sulfamoylamino)methyl]cyclopentyl]-5-[2-(2-fluoro-6-methoxy-phenyl)ethynyl]pyrrolo[2,3-d]pyrimidine] was tested. Which IC50 did it give?
**A.** 0.013 µM

**Q.** With `Nc1ncnc2c1c(C#Cc1cccc3cccnc13)cn2[C@@H]1C[C@H](CNS(N)(=O)=O)[C@@H](O)[C@H]1O` [Example 96, 8-[2-[4-Amino-7-[(1R,2S,3R,4R)-2,3-dihydroxy-4-[(sulfamoylamino)methyl]cyclopentyl]pyrrolo[2,3-d]pyrimidin-5-yl]ethynyl]quinoline] as the compound, how does the IC50 read?
**A.** 0.0092 µM

**Q.** Which IC50 does the source give for `CSc1cccc(F)c1C#Cc1cn([C@@H]2C[C@H](CNS(N)(=O)=O)[C@@H](O)[C@H]2O)c2ncnc(N)c12` [Example 98, 4-Amino-7-[(1R,2S,3R,4R)-2,3-dihydroxy-4-[(sulfamoylamino)methyl]cyclopentyl]-5-[2-(2-fluoro-6-methylsulfanyl-phenyl)ethynyl]pyrrolo[2,3-d]pyrimidine] here?
**A.** 0.0083 µM

**Q.** With `CCSc1cccc(F)c1C#Cc1cn([C@@H]2C[C@H](CNS(N)(=O)=O)[C@@H](O)[C@H]2O)c2ncnc(N)c12` [Example 99, 4-Amino-7-[(1R,2S,3R,4R)-2,3-dihydroxy-4-[(sulfamoylamino)methyl]cyclopentyl]-5-[2-(2-ethylsulfanyl-6-fluoro-phenyl)ethynyl]pyrrolo[2,3-d]pyrimidine] as the compound, how does the IC50 read?
**A.** 0.019 µM

**Q.** With `Nc1ncnc2c1c(C#Cc1c(F)cc(N3CCOCC3)cc1F)cn2[C@@H]1C[C@H](CNS(N)(=O)=O)[C@@H](O)[C@H]1O` [Example 101, 4-[4-[2-[4-amino-7-[(1R,2S,3R,4R)-2,3-dihydroxy-4-[(sulfamoylamino)methyl]cyclopentyl]pyrrolo[2,3-d]pyrimidin-5-yl]ethynyl]-3,5-difluoro-phenyl]morpholine] as the compound, how does the IC50 read?
**A.** 0.0076 µM

**Q.** `CN1CCN(c2cc(F)c(C#Cc3cn([C@@H]4C[C@H](CNS(N)(=O)=O)[C@@H](O)[C@H]4O)c4ncnc(N)c34)c(F)c2)CC1` [Example 103, 4-Amino-5-[2-[2,6-difluoro-4-(4-methylpiperazin-1-yl)phenyl]ethynyl]-7-[(1R,2S,3R,4R)-2,3-dihydroxy-4-[(sulfamoylamino)methyl]cyclopentyl]pyrrolo[2,3-d]pyrimidine] was tested. Which IC50 did it give?
**A.** 0.013 µM

**Q.** For `Nc1ncnc2c1c(C#Cc1c(F)cc(OCn3cccn3)cc1F)cn2[C@@H]1C[C@H](CNS(N)(=O)=O)[C@@H](O)[C@H]1O` [Example 104, 4-Amino-5-[2-[2,6-difluoro-4-(pyrazol-1-ylmethoxy)phenyl]ethynyl]-7-[(1R,2S,3R,4R)-2,3-dihydroxy-4-[(sulfamoylamino)methyl]cyclopentyl]pyrrolo[2,3-d]pyrimidine], which IC50 is on record?
**A.** 0.0089 µM
